Test results as given in patent US20060205749A1, “Remedy and/or preventive for lung diseases” (priority 2003, published 2006).

What was measured:
[1] = system: neutrophils in BALF, mainstream of cigarette smoke induced pulmonary injury model; assay: Inhibitory effect on increase of neutrophils in mainstream of cigarette smoke induced pulmonary injury model; type: in vivo; details: male CD rats, 0.3 mg/body orally 10 to 12 hours before exposure to mainstream of cigarette smoke, BAL after the exposure for 6 hours
Method: Compound (I) was suspended to the concentration of 0.6 mg/mL in a physiological saline containing 25% Alevaire (registered trademark, Azwell, Osaka), which is an inhalant for respiratory organs, (administration solvent). The suspension was used for the test. The suspension is referred to as a “suspension for the administration of Compound (I)”.
First, 0.5 mL of the administration solvent or the suspension for the administration of Compound (I) per kilogram of body weight was administered orally to male CD rats aged 6 to 7 weeks (Charles River Japan, Kanagawa). After 10 to 12 hours, the rats were systemically exposed to mainstream of cigarette smoke (Hi-Lite, Japan Tobacco Inc., Tokyo) using a smoking exposure instrument (M•I•P•S, Osaka). The exposure to the mainstream of cigarette smoke for 5 minutes and then exposure to air for 10 minutes were successively performed by repeating them eight times.
A group subjected to the administration of the administration solvent and exposure to air instead of mainstream of cigarette smoke is referred to as a “solvent administration group”. […]
After the exposure for 6 hours, BALs were performed with Hanks' solution [Hanks' Balanced Salt Solution (Invitrogen Corporation, CA, USA)] […] All of the BALFs were recovered and subjected to treatment as in Test example 1, and then the numbers of neutrophils were measured. […]

[2] = system: neutrophils in BALF, lipopolysaccharide (LPS)-induced pulmonary injury model; assay: Inhibitory effect on increase of neutrophils in LPS-induced pulmonary injury model; type: in vivo; details: male BALB/c mice, 0.1 mg/body intratracheally together with LPS, BAL 6 hours after administration
Method: Physiological saline containing 25% Alevaire (registered trademark, Azwell Inc., Osaka) which is an inhalant for respiratory organs (administration solvent), or administration solvent dissolving 300 ng/mL of LPS (manufactured by Sigma-Aldrich, Mo., USA) were administered intratracheally to 9-week-old male BALB/c mice (Charles River Japan, Kanagawa) in an amount of 0.1 mL respectively. Then bronchoalveolar lavages (BALS) were performed 6 hours after the intratracheal administration (These administration groups were referred to as a “solvent administration group” and an “LPS administration group”, respectively). […]
The recovered bronchoalveolar lavage fluids (BALFS) were centrifuged at 570×g for 10 minutes at 4° C., followed by removal of supernatants to obtain pellets. […] The total numbers of leukocytes were counted with an automatic blood cell counter Celltac α (Nihon Kohden Corporation, Tokyo). […] Then, the numbers of cells were counted under a microscope (400×).
The number of cells was counted up to 300 in total while macrophages, neutrophils and lymphocytes were distinguished. Then, the ratio of each cell was calculated (equation 1). The number of neutrophils was calculated from the ratio of neutrophils and the total number of leukocytes (equation 2). The inhibition ratio of the increase in number of neutrophils by the administration of Compound (I) was calculated by equation 3. […]

COc1ccc(C(=O)Cc2c(Cl)cncc2Cl)c2c1OC1(CCCC1)O2 [Compound (I), 7-[2-(3,5-dichloro-4-pyridyl)-1-oxoethyl]-4-methoxy-spiro[1,3-benzodioxol-2,1′-cyclopentane]]
Inhibition ratio of increase in number of neutrophil [1]: 81% | Number of neutrophils ([1]; mean ± standard error): 0.34 ± 0.13 ×10^5 cells/BALF | Number of neutrophils ([2]; mean ± standard error): 0.72 ± 0.22 ×10^5 cells/BALF | Inhibition ratio of increase in number of neutrophils ([2]; equation 3): 47%
